{
  "source": "patent US5747269A",
  "about": "“Determination of peptide motifs on MHC molecules” (Max-Planck-Gesellschaft zur Forderung der Wissenschaften …, priority 1991, dated 1998)",
  "key": {"K^d": {"system": "K^d", "details": "natural influenza epitope; cited from earlier work"}},
  "note": "Where no end group is shown, it is not given here.",
  "data": [
    {"sequence": "SYFPEITHI [SYFPEITHI (SEQ ID NO:2)]", "values": [
      {"measurement": "match of the K^d-eluted self peptide sequence with the K^d-restricted consensus motif", "setting": "H-2K^d", "result": "matches the consensus motif"}
    ]},
    {"sequence": "TYQRTRALV [TYQRTRALV (SEQ ID NO:1)]", "values": [
      {"measurement": "K^d restriction / T cell epitope", "setting": "K^d", "result": "natural K^d -restricted influenza epitope"}
    ]}
  ]
}
